The target in the assay is T1, canine TRPM8 (Canis lupus familiaris, UniProt Q1A7N1).
T1 construct: expressed in transfected cells
The experiment in a line: In vitro canine TRPM8 functional assay (Ca2+-sensitive dye, FLIPR/FDSS, icilin activation). Conditions: HEK293 cells expressing canine TRPM8, icilin activation; for % I (1 μM): 1 μM compound; for IC50: eight-point dose-response. Format: cell-based. The protocol: The functional activity of compounds of Formula (I) was determined by measuring changes in intracellular calcium concentration using a Ca^2+-sensitive fluorescent dye. The changes in fluorescent signal were monitored by a fluorescence plate reader, either a FLIPR™ (Molecular Devices) or FDSS (Hamamatsu).
HEK293 cells stably expressing canine TRPM8 were routinely grown as monolayers in Dulbecco's minimum essential medium supplemented with 10% FBS, 1 mM L-glutamine, 100 units/mL penicillin, 100 ug/mL streptomycin and 400 μg/mL G418. Cells were maintained in 5% CO2 at 37° C. At 24 hrs prior to assay, cells were seeded in clear-base poly-D-lysine coated 384-well plates (BD Biosciences, NJ, USA) at a density of 5,000 cells per well in culture medium and grown overnight in 5% CO2 at 37° C. On assay day, growth media was removed and cells were loaded with Calcium 3 Dye (Molecular Devices) for 35 min at 37° C., under 5% CO2 and then for 25 min at room temperature and atmosphere. Subsequently, cells were tested for agonist-induced increases in intracellular Ca^2+ levels using FLIPR™ or FDSS. Cells were challenged with a compound of Formula (I) (at varying concentrations) and intracellular Ca^2+ was measured for 5 min prior to the addition of icilin to all wells to achieve a final concentration which produces approximately an 80% maximal response.
Basal FI was subtracted prior to normalizing data to percent of maximal response. Curves were generated using the average of quadruplicate wells for each data point, were analyzed using nonlinear regression of either sigmoidal dose response or sigmoidal dose response (variable slope). Finally, the EC50 and IC50 values were calculated with the best-fit dose curve determined by GraphPad Prism.

Where [1] appears, read: HEK293, read-out: % I (1 μM), 1 μM compound.
[2] abbreviates: HEK293, 1 μM compound, read-out: % I (1 μM).

Values joined by “and” are separate entries in the source; they are usually repeats but may differ in a detail not shown here. Equal entries are not always repeated. Where two headings read alike, the source gives them in different places.

T1 sequence (Q1A7N1 1-1104): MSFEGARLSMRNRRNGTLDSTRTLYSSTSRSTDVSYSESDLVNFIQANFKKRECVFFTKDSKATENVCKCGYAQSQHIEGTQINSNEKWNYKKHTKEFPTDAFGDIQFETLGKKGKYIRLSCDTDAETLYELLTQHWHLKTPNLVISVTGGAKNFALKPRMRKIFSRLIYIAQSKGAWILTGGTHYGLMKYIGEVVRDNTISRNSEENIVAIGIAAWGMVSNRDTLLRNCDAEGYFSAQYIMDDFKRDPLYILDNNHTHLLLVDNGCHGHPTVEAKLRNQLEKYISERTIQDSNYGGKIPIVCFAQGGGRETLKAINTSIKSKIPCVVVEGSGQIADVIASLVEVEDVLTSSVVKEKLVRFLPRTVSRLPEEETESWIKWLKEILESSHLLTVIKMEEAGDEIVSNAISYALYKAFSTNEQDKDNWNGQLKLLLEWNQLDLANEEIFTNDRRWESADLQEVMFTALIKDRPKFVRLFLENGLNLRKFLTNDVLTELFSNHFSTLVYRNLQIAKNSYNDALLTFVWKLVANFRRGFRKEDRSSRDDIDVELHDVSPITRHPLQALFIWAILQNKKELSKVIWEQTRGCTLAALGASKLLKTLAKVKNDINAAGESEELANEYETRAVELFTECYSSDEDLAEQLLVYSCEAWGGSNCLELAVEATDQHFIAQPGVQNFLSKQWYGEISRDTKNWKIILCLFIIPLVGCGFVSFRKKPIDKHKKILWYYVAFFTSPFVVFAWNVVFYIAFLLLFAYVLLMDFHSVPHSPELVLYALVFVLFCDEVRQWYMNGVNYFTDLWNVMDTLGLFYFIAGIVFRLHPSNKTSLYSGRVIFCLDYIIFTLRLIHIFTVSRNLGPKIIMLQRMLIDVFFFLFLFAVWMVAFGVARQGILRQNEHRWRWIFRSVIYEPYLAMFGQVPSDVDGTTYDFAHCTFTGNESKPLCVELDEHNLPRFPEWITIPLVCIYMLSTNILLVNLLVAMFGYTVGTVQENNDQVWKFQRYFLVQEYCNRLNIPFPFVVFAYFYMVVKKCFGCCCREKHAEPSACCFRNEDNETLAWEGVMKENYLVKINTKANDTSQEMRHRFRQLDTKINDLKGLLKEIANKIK

For the compound `CCOP(=O)(CC(C)C)C(Cc1ccc(F)c(F)c1)c1sc2ccccc2c1C` (stereo not shown) [Cpd 6, [2-(3,4-Difluoro-phenyl)-1-(3-methyl-benzo[b]thiophene-2-yl)-ethyl]-isobutyl-phosphonic acid ethyl ester], the “% I (1 μM)” value is on record as 100%. Where the note is “read-out: IC50”, the 50% inhibitory concentration (IC50) amounted to 0.028 µM.
With `CCOP(=O)(OCC)C(Cc1ccc(F)c(F)c1)c1sc2c(F)cccc2c1C` (stereo not shown) [Cpd 8, [2-(3,4-Difluoro-phenyl)-1-(7-fluoro-3-methyl-benzo[b-]thiophene-2-yl)-ethyl]-phosphonic acid diethyl ester], the inhibition at 1 µM under setting [1] was found to be 100%. Under “IC50 (μM)”, this compound came in with an IC50 of 0.037 µM.
As for `CCOP(=O)(OCC)C(Cc1ccc(F)c(F)c1)c1oc2ccccc2c1C` (stereo not shown) [Cpd 9, [2-(3,4-Difluoro-phenyl)-1-(3-methyl-benzofuran-2-yl)-ethyl]-phosphonic acid diethyl ester], the inhibition at 1 µM under setting [1] worked out at 100%. Also, the IC50 (IC50 (μM)) amounted to 0.041 µM.
On to `CCOP(=O)(OCC)C(Cc1cccc(F)c1F)c1sc2ccccc2c1C` (stereo not shown) [Cpd 10], for which the “% I (1 μM)” value amounted to 100%. Also, under “read-out: IC50”, the IC50 is 0.043 µM.
Consider `Cc1c(C(Cc2ccc(F)c(F)c2)P(=O)(OC(C)C)OC(C)C)oc2ccccc12` (stereo not shown) [Cpd 11], for which the “% I (1 μM)” value is 99% and 103%. Moreover, the IC50 (read-out: IC50) was 0.043 µM and 0.047 µM.
For the compound `Cc1c(C(OCc2ccc(F)c(F)c2)P(=O)(CC(C)C)CC(C)C)sc2ccccc12` (stereo not shown) [Cpd 13, 2-[(3,4-Difluoro-benzyloxy)-(diisobutyl-phosphinoyl)-methyl]-3-methyl-benzo[b]thiophene], the inhibition at 1 µM under setting [2] was determined as 100%. Moreover, the IC50 (read-out: IC50) was 0.046 µM.
With `CCOP(=O)(OCC)C(Cc1ccc(F)c(F)c1)c1sc2cc(F)ccc2c1C` (stereo not shown) [Cpd 16, [2-(3,4-Difluoro-phenyl)-1-(6-fluoro-3-methyl-benzo[b]-thiophene-2-yl)-ethyl]-phosphonic acid diethyl ester], the inhibition at 1 µM under setting [1] is 100%. The IC50 (IC50 (μM)) is 0.057 µM and 0.064 µM.
Regarding `CC(C)OP(=O)(OC(C)C)C(Cc1ccc(F)c(F)c1)c1sc2ccccc2c1C(C)C` (stereo not shown) [Cpd 19], the “% I (1 μM)” value was 100%. Where the note is “read-out: IC50”, the IC50 was 0.068 µM.
In the case of `CC(C)OP(=O)(OC(C)C)C(Cc1ccc(F)c(F)c1)c1sc2ccccc2c1C1CC1` (stereo not shown) [Cpd 20, [1-(3-Cyclopropyl-benzo[b]thiophene-2-yl)-2-(3,4-difluoro-phenyl)-ethyl]-phosphonic acid diisopropyl ester], the inhibition at 1 µM under setting [2] was 100%. Also, where the note is “read-out: IC50”, the IC50 stood at 0.07 µM.
Take `CCOP(=O)(OCC)C(Cc1cccc(Cl)c1F)c1sc2ccccc2c1C` (stereo not shown) [Cpd 23]: the “% I (1 μM)” value was 100%. Further, the IC50 (read-out: IC50) was determined as 0.096 µM.
Consider `CCOP(=O)(OCC)C(Cc1ccc(Cl)c(Cl)c1)c1sc2ccccc2c1Br` (stereo not shown) [Cpd 24, [1-(3-Bromo-benzo[b]thiophen-2-yl)-2-(3,4-dichloro-phenyl)-ethyl]-phosphonic acid diethyl ester], for which the inhibition at 1 µM under setting [1] worked out at 100%. This compound also had an IC50 (IC50 (μM)) of 0.107 µM.
Take `CC(C)OP(=O)(OC(C)C)C(Cc1ccc(F)c(F)c1)c1nc2ccccc2s1` (stereo not shown) [Cpd 25, [1-Benzothiazol-2-yl-2-(3,4-difluoro-phenyl)-ethyl]-phosphonic acid diisopropyl ester]: under setting [2], the inhibition at 1 µM is 101%. Besides, the IC50 (read-out: IC50) is 0.12 µM and 0.19 µM.
As to `CCOP(=O)(OCC)C(Cc1ccccc1C)c1sc2ccccc2c1C` (stereo not shown) [Cpd 26], the “% I (1 μM)” value was 100%. The IC50 (read-out: IC50) was determined as 0.108 µM.
Turning to `CCOP(=O)(OCC)C(Cc1ccc(F)cc1Cl)c1sc2ccccc2c1C` (stereo not shown) [Cpd 27], the “% I (1 μM)” value came out at 99%. Also, the IC50 (read-out: IC50) was found to be 0.11 µM.
`CCOP(=O)(OCC)C(Cc1cc(F)cc(F)c1Cl)c1sc2ccccc2c1C` (stereo not shown) [Cpd 28]: the “% I (1 μM)” value was found to be 100%. The IC50 (read-out: IC50) was determined as 0.11 µM.
In the same order, the values of `CCOP(=O)(OCC)C(Cc1cccc(Cl)c1Cl)c1sc2ccccc2c1C` (stereo not shown) [Cpd 35] are 100% and 0.125 µM.
With `CCOP(=O)(CC(C)C)C(Cc1ccc(F)c(F)c1)c1sc2ccccc2c1C` (stereo not shown) [Cpd 36, [2-(3,4-Difluoro-phenyl)-1-(3-methyl-benzo[b]thiophene-2-yl)-ethyl]-isobutyl-phosphonic acid ethyl ester], the “% I (1 μM)” value is 100%. For the same compound, for the setting “read-out: IC50”, the IC50 came out at 0.126 µM.
With `CCOP(=O)(OCC)C(Cc1cccc(C(F)(F)F)c1F)c1sc2ccccc2c1C` (stereo not shown) [Cpd 37], the “% I (1 μM)” value was determined as 100%. For the same compound, the concentration for half-maximal inhibition (IC50) (read-out: IC50) is 0.127 µM.
For the compound `CC(C)OP(=O)(OC(C)C)C(Cc1ccc(F)c(F)c1)c1sc2ccccc2c1C1CCCC1` (stereo not shown) [Cpd 38], the “% I (1 μM)” value came to 99%. Besides, the IC50 (read-out: IC50) came to 0.14 µM.
For `CCOP(=O)(OCC)C(Cc1cccc(C(F)(F)F)c1)c1cc2ccccc2s1` (stereo not shown) [Cpd 39], the “% I (1 μM)” value was determined as 100%. Also, where the note is “read-out: IC50”, the IC50 is 0.141 µM.
Turning to `CC(C)OP(=O)(OC(C)C)C(Cc1ccc(F)c(F)c1)c1sc2ccccc2c1C(F)(F)F` (stereo not shown) [Cpd 43, [2-(3,4-Difluoro-phenyl)-1-(3-trifluoromethyl-benzo[b]-thiophene-2-yl)-ethyl]-phosphonic acid diisopropyl ester], the inhibition at 1 µM under setting [2] was 100%. Besides, the IC50 (read-out: IC50) is 0.16 µM.
On to `CCOP(=O)(OCC)C(Cc1ccc(F)c(F)c1)c1sc2ccc(F)cc2c1C` (stereo not shown) [Cpd 45, [2-(3,4-Difluoro-phenyl)-1-(5-fluoro-3-methyl-benzo[b]thiophene-2-yl)-ethyl]-phosphonic acid diethyl ester], for which, under setting [1], the inhibition at 1 µM was determined as 100%. In addition, the IC50 (IC50 (μM)) amounted to 0.164 µM.
As for `CCOP(=O)(OCC)C(Cc1ccc2ccccc2c1)c1sc2ccccc2c1C` (stereo not shown) [Cpd 46], the “% I (1 μM)” value is reported as 99%. Further, the IC50 (read-out: IC50) amounted to 0.167 µM.
As for `CCOP(=O)(OCC)C(Cc1ccccc1Cl)c1sc2ccccc2c1C` (stereo not shown) [Cpd 48], the “% I (1 μM)” value is on record as 100%. The IC50 (read-out: IC50) amounted to 0.169 µM.
Take `CCOP(=O)(OCC)C(Cc1c(Cl)cccc1Cl)c1sc2ccccc2c1C` (stereo not shown) [Cpd 54]: the “% I (1 μM)” value was 100%. Moreover, where the note is “read-out: IC50”, the half-inhibitory concentration (IC50) amounted to 0.23 µM.
As to `CCOP(=O)(OCC)C(Cc1cc(F)cc(C(F)(F)F)c1)c1sc2ccccc2c1C` (stereo not shown) [Cpd 56], the “% I (1 μM)” value is 103%. Further, where the note is “read-out: IC50”, the IC50 was found to be 0.24 µM.
For `CCOP(=O)(OCC)C(Cc1cccc(OC(F)(F)F)c1)c1sc2ccccc2c1C` (stereo not shown) [Cpd 57], the “% I (1 μM)” value came out at 100%. For the setting “read-out: IC50”, the half-inhibitory concentration (IC50) stood at 0.26 µM.
With `CCOP(=O)(OCC)C(Cc1ccc(C(F)(F)F)c(F)c1)c1cc2ccccc2s1` (stereo not shown) [Cpd 58], the “% I (1 μM)” value was 100%. Besides, the IC50 (read-out: IC50) came to 0.27 µM.
In the case of `CCOP(=O)(OCC)C(Cc1ccccc1C(F)(F)F)c1sc2ccccc2c1C` (stereo not shown) [Cpd 59], the “% I (1 μM)” value was 99%. For the same compound, the IC50 (read-out: IC50) is 0.27 µM.
In the case of `CCOP(=O)(OCC)C(Cc1c(Cl)ccc(C)c1F)c1sc2ccccc2c1C` (stereo not shown) [Cpd 60], the “% I (1 μM)” value worked out at 100%. Besides, the IC50 (read-out: IC50) stood at 0.28 µM.
In the same order, the values of `CCOP(=O)(OCC)C(Cc1ccccc1OC(F)(F)F)c1sc2ccccc2c1C` (stereo not shown) [Cpd 61] are 100% and 0.28 µM.
Take `Cc1ccc2sc(C(Cc3ccc(F)c(F)c3)P(=O)(OC(C)C)OC(C)C)c(C)c2c1` (stereo not shown) [Cpd 62, 2-(3,4-Difluoro-phenyl)-[1-(3,5-dimethyl-benzo[b]thiophen-2-yl)-ethyl]-phosphonic acid diisopropyl ester]: the inhibition at 1 µM under setting [2] stood at 95%. Further, the IC50 (read-out: IC50) is 0.29 µM.
As for `CC(C)OP(=O)(OC(C)C)C(Cc1ccc(F)c(F)c1)c1cc2ccccc2s1` (stereo not shown) [Cpd 63, [1-Benzo[b]thiophen-2-yl-2-(3,4-difluoro-phenyl)-ethyl]-phosphonic acid diisopropyl ester], the inhibition at 1 µM under setting [2] was found to be 100%. Further, the IC50 (read-out: IC50) was found to be 0.3 µM.
For the compound `CCOP(=O)(OCC)C(Cc1ccc(Cl)c(Cl)c1)c1sc2ccccc2c1-c1ccccc1` (stereo not shown) [Cpd 64, [2-(3,4-Dichloro-phenyl)-1-(3-phenyl-benzo[b]thiophen-2-yl)-ethyl]-phosphonic acid diethyl ester], under setting [1], the inhibition at 1 µM is 64%. The same compound displayed an IC50 (IC50 (μM)) of 0.3 µM.
Consider `CCOP(=O)(OCC)C(Cc1ccc(F)c(F)c1)c1sc2cccc(Cl)c2c1C` (stereo not shown) [Cpd 65, [1-(4-Chloro-3-methyl-benzo[b]thiophen-2-yl)-2-(3,4-difluoro-phenyl)-ethyl]-phosphonic acid diethyl ester], for which, under setting [1], the inhibition at 1 µM turned out to be 100%. For the same compound, for the setting “IC50 (μM)”, the IC50 amounted to 0.3 µM.
As for `CCOP(=O)(OCC)C(Cc1ccccc1Br)c1sc2ccccc2c1C` (stereo not shown) [Cpd 66], the “% I (1 μM)” value was found to be 100%. The IC50 (read-out: IC50) was 0.33 µM.
For the compound `CCOP(=O)(OCC)C(Cc1cc(C(F)(F)F)ccc1F)c1sc2ccccc2c1C` (stereo not shown) [Cpd 67], the “% I (1 μM)” value is given as 100%. For the same compound, where the note is “read-out: IC50”, the IC50 was determined as 0.33 µM.
Take `CCOP(=O)(OCC)C(Cc1ccc(C(F)(F)F)cc1)c1cc2ccccc2s1` (stereo not shown) [Cpd 68]: the “% I (1 μM)” value came out at 96%. Besides, the IC50 (read-out: IC50) stood at 0.34 µM.

In general, IC50 refers to the concentration needed to halve the response being measured.

For the origin of these results see patent US20080287398A1, “COLD MENTHOL RECEPTOR-1 ANTAGONISTS” (priority 2007, published 2008).
